Results taken from paper PMC7479175, “Selection of Potent Inhibitors of Soluble Epoxide Hydrolase for Usage in Veterinary Medicine” (Frontiers in Veterinary Science, 2020).
Where two headings read alike, the source gives them in different places.

Legend:
dogs with osteoarthritis = tested on: dogs with osteoarthritis; parameters: method as in PMID 31214021; conditions: ref [14]; cited from earlier work
[1] = Solubility of inhibitors in different solvents; format: physicochemical; conditions: thermodynamic from solid
Protocol: The un-dissolved compounds were filtered through a 0.22 μm centrifuge filter at 30 or 40°C and the supernatant further diluted 10-fold with methanol. The concentration of t-TUCB in the samples was determined by LC/MS/MS analysis as previously described ([15]).

Q: Which pain perception (dogs with osteoarthritis) does the source give for O=C(Nc1ccc(OC(F)(F)F)cc1)N[C@H]1CC[C@H](Oc2ccc(C(=O)O)cc2)CC1 [1,728, trans-4-{4-[3-(4-trifluoromethoxy-phenyl)-ureido]-cyclohexyloxy}-benzoic acid] here?
A: able to reduce pain perception

Q: What about the solubility at 24 h ([1]; aqueous buffer, Phosphate Buffer (0.1 M pH 7.4), 30°C, read-out: Solubility) of the same molecule?
A: 0.011 mM

Q: And the solubility at 24 h ([1]; aqueous buffer, Phosphate Buffer (0.1 M pH 7.4), 40°C, read-out: Solubility in mg/mL)?
A: 0.01 mg/mL

Q: What about the solubility at 24 h ([1]; aqueous with cosolvent or surfactant or cyclodextrin, Tween 80, 30°C, read-out: Solubility) of the same molecule?
A: 18 mM

Q: What about the solubility at 24 h ([1]; aqueous with cosolvent or surfactant or cyclodextrin, Tween 80, 40°C, read-out: Solubility) of the same molecule?
A: 34 mM

Q: And the solubility at 24 h ([1]; oil or lipid, Oleic rich oil, 30°C, read-out: Solubility)?
A: 0.31 mM

Q: What about the solubility at 24 h ([1]; oil or lipid, Oleic rich oil, 30°C, read-out: Solubility in mg/mL) of the same molecule?
A: 0.13 mg/mL

Q: And the solubility at 24 h ([1]; oil or lipid, Oleic rich oil, 40°C, read-out: Solubility in mg/mL)?
A: 0.1 mg/mL

Q: What about the solubility at 24 h ([1]; organic solvent or mixture, Carbitol, 30°C, read-out: Solubility) of the same molecule?
A: 83 mM

Q: And the solubility at 24 h ([1]; organic solvent or mixture, Carbitol, 30°C, read-out: Solubility in mg/mL)?
A: 37 mg/mL

Q: What about the solubility at 24 h ([1]; organic solvent or mixture, DMSO, 30°C, read-out: Solubility) of the same molecule?
A: 299 mM

Q: And the solubility at 24 h ([1]; organic solvent or mixture, DMSO, 30°C, read-out: Solubility in mg/mL)?
A: 131 mg/mL

Q: And the solubility at 24 h ([1]; organic solvent or mixture, DMSO, 40°C, read-out: Solubility)?
A: 580 mM

Q: And the solubility at 24 h ([1]; organic solvent or mixture, DMSO, 40°C, read-out: Solubility in mg/mL)?
A: 254 mg/mL

Q: What about the solubility at 24 h ([1]; organic solvent or mixture, Ethanol, 30°C, read-out: Solubility) of the same molecule?
A: 9 mM

Q: And the solubility at 24 h ([1]; organic solvent or mixture, Ethanol, 30°C, read-out: Solubility in mg/mL)?
A: 4 mg/mL

Q: And the solubility at 24 h ([1]; organic solvent or mixture, Ethanol, 40°C, read-out: Solubility)?
A: 32 mM

Q: And the solubility at 24 h ([1]; organic solvent or mixture, Ethanol, 40°C, read-out: Solubility in mg/mL)?
A: 14 mg/mL

Q: What about the solubility at 24 h ([1]; organic solvent or mixture, Glycerol, 30°C, read-out: Solubility) of the same molecule?
A: 0.13 mM

Q: And the solubility at 24 h ([1]; organic solvent or mixture, Glycerol, 30°C, read-out: Solubility in mg/mL)?
A: 0.06 mg/mL

Q: And the solubility at 24 h ([1]; organic solvent or mixture, Glycerol, 40°C, read-out: Solubility)?
A: 0.41 mM

Q: And the solubility at 24 h ([1]; organic solvent or mixture, Glycerol, 40°C, read-out: Solubility in mg/mL)?
A: 0.18 mg/mL

Q: What about the solubility at 24 h ([1]; organic solvent or mixture, PEG200, 30°C, read-out: Solubility) of the same molecule?
A: 195 mM

Q: And the solubility at 24 h ([1]; organic solvent or mixture, PEG200, 30°C, read-out: Solubility in mg/mL)?
A: 85 mg/mL

Q: What about the solubility at 24 h ([1]; organic solvent or mixture, PEG200, 40°C, read-out: Solubility) of the same molecule?
A: 207 mM

Q: What about the solubility at 24 h ([1]; organic solvent or mixture, PEG200, 40°C, read-out: Solubility in mg/mL) of the same molecule?
A: 91 mg/mL

Q: And the solubility at 24 h ([1]; organic solvent or mixture, PEG300, 40°C, read-out: Solubility)?
A: 254 mM

Q: What about the solubility at 24 h ([1]; organic solvent or mixture, PEG300, 40°C, read-out: Solubility in mg/mL) of the same molecule?
A: 111 mg/mL

Q: And the solubility at 24 h ([1]; organic solvent or mixture, PEG400, 30°C, read-out: Solubility)?
A: 40 mM

Q: What about the solubility at 24 h ([1]; organic solvent or mixture, PEG400, 30°C, read-out: Solubility in mg/mL) of the same molecule?
A: 18 mg/mL

Q: And the solubility at 24 h ([1]; organic solvent or mixture, PEG400, 40°C, read-out: Solubility)?
A: 57 mM

Q: What about the solubility at 24 h ([1]; organic solvent or mixture, PEG400, 40°C, read-out: Solubility in mg/mL) of the same molecule?
A: 25 mg/mL

Q: What about the solubility at 24 h ([1]; organic solvent or mixture, Propylene glycol, 30°C, read-out: Solubility) of the same molecule?
A: 9 mM

Q: What about the solubility at 24 h ([1]; organic solvent or mixture, Propylene glycol, 30°C, read-out: Solubility in mg/mL) of the same molecule?
A: 4 mg/mL

Q: And the solubility at 24 h ([1]; organic solvent or mixture, Propylene glycol, 40°C, read-out: Solubility)?
A: 14 mM

Q: And the solubility at 24 h ([1]; organic solvent or mixture, Propylene glycol, 40°C, read-out: Solubility in mg/mL)?
A: 6 mg/mL

Q: What about the solubility at 24 h ([1]; organic solvent or mixture, Tween 80, 30°C, read-out: Solubility in mg/mL) of the same molecule?
A: 8 mg/mL

Q: What about the solubility at 24 h ([1]; organic solvent or mixture, Tween 80, 40°C, read-out: Solubility in mg/mL) of the same molecule?
A: 15 mg/mL

Q: And the solubility at 24 h ([1]; organic solvent or mixture, such as Carbitol and polyethylene glycol (PEG), read-out: solubility in numerous organic liquids used in the formulation of drugs)?
A: > 20 mg/mL
